{"source": "patent US20260022142A1", "about": "“MACROCYCLIC IMMUNOMODULATORS” (Bristol-Myers Squibb Company, priority 2022, published 2026)", "note": "Bridge positions count the residues as written; N and C are the ends. Square brackets hold non-standard residues; d marks the D form. Peptide text beside a SMILES is read from it. * marks the point of attachment. ξ: configuration not given here. Phe(4-CONH2) = NC(=O)c1ccc(C[C@H](N)C(=O)O)cc1; Bip = N[C@@H](Cc1ccc(-c2ccccc2)cc1)C(=O)O; Phe(3-Me) = Cc1cccc(C[C@H](N)C(=O)O)c1; Cyclopropanecarbonyl = O=C(C1CC1)*; Val(3-OH) = CC(C)(O)[C@H](N)C(=O)O; Cha = N[C@@H](CC1CCCCC1)C(=O)O; Thr(3ξ) = CC(O)[C@H](N)C(=O)O; 12Ado = NCCCCCCCCCCCC(=O)O; Carboxymethyl = O=C(O)C*; Orn = NCCC[C@H](N)C(=O)O; Aun = NCCCCCCCCCCC(=O)O; Dab = NCC[C@H](N)C(=O)O; Dap = NC[C@H](N)C(=O)O; AEEA = NCCOCCOCC(=O)O; Piv = CC(C)(C)C(=O)*"}
{"target": "T1, PD-1/PD-L1 interaction (PE-labeled human PD-L1-Ig binding to Jurkat cell line over-expressing human PD-1) (Homo sapiens, UniProt Q15116)", "T1 construct": "expressed in transfected cells; host or cells: Jurkat", "T1 sequence (Q15116 25-288)": "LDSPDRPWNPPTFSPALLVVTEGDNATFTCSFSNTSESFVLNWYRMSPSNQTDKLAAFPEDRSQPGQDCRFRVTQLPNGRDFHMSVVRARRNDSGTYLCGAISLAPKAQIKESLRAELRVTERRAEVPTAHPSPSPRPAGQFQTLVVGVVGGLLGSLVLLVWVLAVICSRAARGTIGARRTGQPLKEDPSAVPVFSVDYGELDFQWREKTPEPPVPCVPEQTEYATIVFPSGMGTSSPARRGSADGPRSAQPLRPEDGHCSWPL", "experiment": "Jurkat-PD-1 Cell Binding High-Content Screening Assay (CBA)", "format": "cell-based", "conditions": "Jurkat cell line over-expressing human PD-1; PE-labeled PD-L1-Ig 20 nM final; read-out: Jurkat hPD1-PDL1 IC50", "summary_of_the_method": "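Jurkat cells over-expressing human PD-1 (8×10^3 per well, DMEM/10% FCS) preincubated with compound 2 h at 37° C, then PE-labeled human PD-L1-Ig (20 nM final) added for 1 h. Cells fixed with paraformaldehyde, Hoechst-stained, and bound fluorescence quantified by high-content imaging.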", "units": {"IC50": "nM"}}
{"molecule": "Cc1cccc(C[C@@H]2NC(=O)[C@H](CC(=O)O)NC(=O)[C@H](Cc3ccc(OCC(=O)O)cc3)NC(=O)[C@H](CCN)NC(=O)CSC[C@@H](C(=O)N[C@@H](CCN)C(=O)NCCCCCCCCCCC(=O)O)NC(=O)[C@H](CO)NC(=O)[C@H](C(C)(C)O)NC(=O)[C@H](CC3CCCCC3)NC(=O)[C@H](CCN)NC(=O)[C@@H](CC(C)C)NC(=O)[C@H](CCCN)NC(=O)[C@H](Cc3ccc(C(N)=O)cc3)NC(=O)[C@H](Cc3ccc(-c4ccccc4)cc3)NC(=O)[C@H](Cc3ccc(OCC(=O)O)cc3)NC2=O)c1", "note": "[Compound 3604] ({CH2CO}-[Dab]Y(Carboxymethyl)D[Phe(3-Me)]Y(Carboxymethyl)[Bip][Phe(4-CONH2)][Orn][dL][Dab][Cha][Val(3-OH)]SC[Dab][Aun]-OH; thioether N-14)", "IC50": 6.8}
{"molecule": "Cc1cccc(C[C@@H]2NC(=O)[C@H](CC(=O)O)NC(=O)[C@H](Cc3ccc(OCC(=O)O)cc3)NC(=O)[C@H](C(C)O)NC(=O)CSC[C@@H](C(=O)N[C@@H](CCN)C(=O)NCCOCCOCC(=O)NCCCCCCCCCCC(=O)O)NC(=O)[C@H](CCCCN)NC(=O)[C@H](C(C)C)NC(=O)[C@H](CC3CCCCC3)NC(=O)[C@H](CCN)NC(=O)[C@@H](CC(C)C)NC(=O)[C@H](CCCN)NC(=O)[C@H](Cc3ccc(O)cc3)NC(=O)[C@H](Cc3ccc(-c4ccccc4)cc3)NC(=O)[C@H](Cc3ccc(O)cc3)NC2=O)c1", "note": "(stereo partly drawn) [Compound 3607] ({CH2CO}-[Thr(3ξ)]Y(Carboxymethyl)D[Phe(3-Me)]Y[Bip]Y[Orn][dL][Dab][Cha]VKC[Dab][AEEA][Aun]-OH; thioether N-14)", "IC50": 11.8}
{"molecule": "Cc1cccc(C[C@@H]2NC(=O)[C@H](CC(=O)O)NC(=O)[C@H](Cc3ccc(OCC(=O)O)cc3)NC(=O)[C@H](CN)NC(=O)CSC[C@@H](C(=O)N[C@@H](CCCCN)C(=O)N[C@@H](CO)C(=O)NCCCCCCCCCCC(=O)O)NC(=O)[C@H](CCCN)NC(=O)[C@H](C(C)C)NC(=O)[C@H](CC3CCCCC3)NC(=O)[C@H](CCN)NC(=O)[C@@H](CC(C)C)NC(=O)[C@H](CCCN)NC(=O)[C@H](Cc3ccc(O)cc3)NC(=O)[C@H](Cc3ccc(-c4ccccc4)cc3)NC(=O)[C@H](C(C)C)NC2=O)c1", "note": "[Compound 3608] ({CH2CO}-[Dap]Y(Carboxymethyl)D[Phe(3-Me)]V[Bip]Y[Orn][dL][Dab][Cha]V[Orn]CKS[Aun]-OH; thioether N-14)", "IC50": 52.7}
{"molecule": "Cc1cccc(C[C@@H]2NC(=O)[C@H](CC(=O)O)NC(=O)[C@H](Cc3ccc(OCC(=O)O)cc3)NC(=O)[C@H](CCN)NC(=O)CSC[C@@H](C(=O)N[C@@H](CCN)C(=O)NCCOCCOCC(=O)NCCCCCCCCCCC(=O)O)NC(=O)[C@H](CCCN)NC(=O)[C@H](C(C)C)NC(=O)[C@H](CC3CCCCC3)NC(=O)[C@H](CCN)NC(=O)[C@@H](CC(C)C)NC(=O)[C@H](CCCN)NC(=O)[C@H](CCCCNC(=O)C(C)(C)C)NC(=O)[C@H](Cc3ccc(-c4ccccc4)cc3)NC(=O)[C@H](CCCCNC(=O)C(C)(C)C)NC2=O)c1", "note": "[Compound 3609] ({CH2CO}-[Dab]Y(Carboxymethyl)D[Phe(3-Me)]K(Piv)[Bip]K(Piv)[Orn][dL][Dab][Cha]V[Orn]C[Dab][AEEA][Aun]-OH; thioether N-14)", "IC50": 18.8}
{"molecule": "Cc1cccc(C[C@@H]2NC(=O)[C@H](CC(=O)O)NC(=O)[C@H](Cc3ccc(OCC(=O)O)cc3)NC(=O)[C@H](CCN)NC(=O)CSC[C@@H](C(=O)N[C@@H](CCN)C(=O)NCCOCCOCC(=O)NCCCCCCCCCCC(=O)O)NC(=O)[C@H](CCCN)NC(=O)[C@H](C(C)C)NC(=O)[C@H](CC3CCCCC3)NC(=O)[C@H](CCN)NC(=O)[C@@H](CC(C)C)NC(=O)[C@H](CCCN)NC(=O)[C@H](Cc3ccc(O)cc3)NC(=O)[C@H](Cc3ccc(-c4ccccc4)cc3)NC(=O)[C@H](CCCCNC(=O)C(C)(C)C)NC2=O)c1", "note": "[Compound 3610] ({CH2CO}-[Dab]Y(Carboxymethyl)D[Phe(3-Me)]K(Piv)[Bip]Y[Orn][dL][Dab][Cha]V[Orn]C[Dab][AEEA][Aun]-OH; thioether N-14)", "IC50": 10.1}
{"molecule": "Cc1cccc(C[C@@H]2NC(=O)[C@H](CC(=O)O)NC(=O)[C@H](Cc3ccc(OCC(=O)O)cc3)NC(=O)[C@H](CCN)NC(=O)CSC[C@@H](C(=O)N[C@@H](CCCN)C(=O)N[C@@H](CN)C(=O)NCCCCCCCCCCC(=O)O)NC(=O)[C@H](CCCN)NC(=O)[C@H](C(C)C)NC(=O)[C@H](CC3CCCCC3)NC(=O)[C@H](CCN)NC(=O)[C@@H](CC(C)C)NC(=O)[C@H](CCCN)NC(=O)[C@H](Cc3ccc(O)cc3)NC(=O)[C@H](Cc3ccc(-c4ccccc4)cc3)NC(=O)[C@H](CCCCNC(=O)C(C)(C)C)NC2=O)c1", "note": "[Compound 3612] ({CH2CO}-[Dab]Y(Carboxymethyl)D[Phe(3-Me)]K(Piv)[Bip]Y[Orn][dL][Dab][Cha]V[Orn]C[Orn][Dap][Aun]-OH; thioether N-14)", "IC50": 13.6}
{"molecule": "Cc1cccc(C[C@@H]2NC(=O)[C@H](CC(=O)O)NC(=O)[C@H](Cc3ccc(OCC(=O)O)cc3)NC(=O)[C@H](CCN)NC(=O)CSC[C@@H](C(=O)N[C@@H](CCCCN)C(=O)N[C@@H](CN)C(=O)NCCCCCCCCCCC(=O)O)NC(=O)[C@H](CCCCN)NC(=O)[C@H](C(C)C)NC(=O)[C@H](CC3CCCCC3)NC(=O)[C@H](CCN)NC(=O)[C@@H](CC(C)C)NC(=O)[C@H](CCCN)NC(=O)[C@H](Cc3ccc(O)cc3)NC(=O)[C@H](Cc3ccc(-c4ccccc4)cc3)NC(=O)[C@H](CCCCNC(=O)C(C)(C)C)NC2=O)c1", "note": "[Compound 3613] ({CH2CO}-[Dab]Y(Carboxymethyl)D[Phe(3-Me)]K(Piv)[Bip]Y[Orn][dL][Dab][Cha]VKCK[Dap][Aun]-OH; thioether N-14)", "IC50": 24.1}
{"molecule": "Cc1cccc(C[C@@H]2NC(=O)[C@H](CC(=O)O)NC(=O)[C@H](Cc3ccc(OCC(=O)O)cc3)NC(=O)[C@H](CCCNC(=O)C3CC3)NC(=O)CSC[C@@H](C(=O)N[C@@H](CCCN)C(=O)N[C@@H](CO)C(=O)NCCCCCCCCCCCC(=O)O)NC(=O)[C@H](CO)NC(=O)[C@H](CCCCN)NC(=O)[C@H](CC3CCCCC3)NC(=O)[C@H](CCN)NC(=O)[C@@H](CC(C)C)NC(=O)[C@H](CCCN)NC(=O)[C@H](Cc3ccc(OCC(=O)O)cc3)NC(=O)[C@H](Cc3ccc(-c4ccccc4)cc3)NC(=O)[C@H](Cc3ccc(OCC(=O)O)cc3)NC2=O)c1", "note": "[Compound 3614] ({CH2CO}-[Orn](Cyclopropanecarbonyl)Y(Carboxymethyl)D[Phe(3-Me)]Y(Carboxymethyl)[Bip]Y(Carboxymethyl)[Orn][dL][Dab][Cha]KSC[Orn]S[12Ado]-OH; thioether N-14)", "IC50": 9.7}
{"molecule": "Cc1cccc(C[C@@H]2NC(=O)[C@H](CC(=O)O)NC(=O)[C@H](Cc3ccc(OCC(=O)O)cc3)NC(=O)[C@H](CCN)NC(=O)CSC[C@@H](C(=O)N[C@H](CC(N)=O)C(=O)NCCOCCOCC(=O)NCCCCCCCCCCC(=O)O)NC(=O)[C@H](CCCN)NC(=O)[C@H](C(C)C)NC(=O)[C@H](CC3CCCCC3)NC(=O)[C@H](CCN)NC(=O)[C@@H](CC(C)C)NC(=O)[C@H](CCCN)NC(=O)[C@H](Cc3ccc(O)cc3)NC(=O)[C@H](Cc3ccc(-c4ccccc4)cc3)NC(=O)[C@H](C(C)C)NC2=O)c1", "note": "[Compound 3616] ({CH2CO}-[Dab]Y(Carboxymethyl)D[Phe(3-Me)]V[Bip]Y[Orn][dL][Dab][Cha]V[Orn]C[dN][AEEA][Aun]-OH; thioether N-14)", "IC50": 18.3}
{"molecule": "Cc1cccc(C[C@@H]2NC(=O)[C@H](CC(=O)O)NC(=O)[C@H](Cc3ccc(OCC(=O)O)cc3)NC(=O)[C@H](CCN)NC(=O)CSC[C@@H](C(=O)N[C@@H](CCCN)C(=O)N[C@@H](CO)C(=O)NCCCCCCCCCCCC(=O)O)NC(=O)[C@H](CO)NC(=O)[C@H](C(C)(C)O)NC(=O)[C@H](CC3CCCCC3)NC(=O)[C@H](CCN)NC(=O)[C@@H](CC(C)C)NC(=O)[C@H](CCCN)NC(=O)[C@H](Cc3ccc(OCC(=O)O)cc3)NC(=O)[C@H](Cc3ccc(-c4ccccc4)cc3)NC(=O)[C@H](Cc3ccc(OCC(=O)O)cc3)NC2=O)c1", "note": "[Compound 3617] ({CH2CO}-[Dab]Y(Carboxymethyl)D[Phe(3-Me)]Y(Carboxymethyl)[Bip]Y(Carboxymethyl)[Orn][dL][Dab][Cha][Val(3-OH)]SC[Orn]S[12Ado]-OH; thioether N-14)", "IC50": 78.8}
{"molecule": "Cc1cccc(C[C@@H]2NC(=O)[C@H](CC(=O)O)NC(=O)[C@H](Cc3ccc(OCC(=O)O)cc3)NC(=O)[C@H](Cc3ccc(C(N)=O)cc3)NC(=O)CSC[C@@H](C(=O)N[C@@H](CCCN)C(=O)N[C@@H](CO)C(=O)NCCCCCCCCCCCC(=O)O)NC(=O)[C@H](CO)NC(=O)[C@H](C(C)(C)O)NC(=O)[C@H](CC3CCCCC3)NC(=O)[C@H](CCN)NC(=O)[C@@H](CC(C)C)NC(=O)[C@H](CCCN)NC(=O)[C@H](Cc3ccc(OCC(=O)O)cc3)NC(=O)[C@H](Cc3ccc(-c4ccccc4)cc3)NC(=O)[C@H](Cc3ccc(OCC(=O)O)cc3)NC2=O)c1", "note": "[Compound 3618] ({CH2CO}-[Phe(4-CONH2)]Y(Carboxymethyl)D[Phe(3-Me)]Y(Carboxymethyl)[Bip]Y(Carboxymethyl)[Orn][dL][Dab][Cha][Val(3-OH)]SC[Orn]S[12Ado]-OH; thioether N-14)", "IC50": 21.8}
{"molecule": "CC(=O)NCCCC[C@@H]1NC(=O)[C@H](Cc2ccc(-c3ccccc3)cc2)NC(=O)[C@H](Cc2ccc(O)cc2)NC(=O)[C@H](Cc2cccc(C)c2)NC(=O)[C@H](CC(=O)O)NC(=O)[C@H](Cc2ccc(OCC(=O)O)cc2)NC(=O)[C@H](CN)NC(=O)CSC[C@@H](C(=O)N[C@@H](CCN)C(=O)N[C@@H](CO)C(=O)NCCCCCCCCCCCC(=O)O)NC(=O)[C@H](CCCN)NC(=O)[C@H](C(C)C)NC(=O)[C@H](CC2CCCCC2)NC(=O)[C@H](CCN)NC(=O)[C@@H](CC(C)C)NC(=O)[C@H](CCCN)NC1=O", "note": "[Compound 3619] ({CH2CO}-[Dap]Y(Carboxymethyl)D[Phe(3-Me)]Y[Bip]K(Ac)[Orn][dL][Dab][Cha]V[Orn]C[Dab]S[12Ado]-OH; thioether N-14)", "IC50": 13.4}
